Several values for one entry are separate records, joined by “and”; a condition that tells them apart may be missing. Equal entries are not always repeated. Inconclusive results and toxic doses are left out.
System: CD2F1 mice, L1210 leukemia ip, survival T/C
Test: NCI In Vivo Anticancer Drug Screen. Data for tumor model L1210 Leukemia (intraperitoneal) in CD2F1 (CDF1) mice
Details: higher = longer survival
In short: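 Ratio T/C, where T is the treated-group value and C the vehicle-dosed control value, from mice implanted with a transplantable tumor.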

[1] = endpoint: mean survival time, dose: 50.0 mg/kg/injection, schedule: Q01DX009 (ip), vehicle: saline
[2] = endpoint: mean survival time, dose: 100.0 mg/kg/injection, schedule: Q01DX009 (ip), vehicle: saline
[3] = endpoint: mean survival time, dose: 200.0 mg/kg/injection, schedule: Q01DX009 (ip), vehicle: saline
[4] = endpoint: mean survival time, dose: 100.0 mg/kg/injection, schedule: Q01DX009 (ip), vehicle: saline with Tween-80
[5] = endpoint: mean survival time, dose: 100.0 mg/kg/injection, schedule: Q04DX003 (ip), vehicle: saline with Tween-80
[6] = endpoint: mean survival time, dose: 200.0 mg/kg/injection, schedule: Q01DX009 (ip), vehicle: saline with Tween-80
[7] = endpoint: mean survival time, dose: 200.0 mg/kg/injection, schedule: Q04DX003 (ip), vehicle: saline with Tween-80
[8] = endpoint: mean survival time, dose: 400.0 mg/kg/injection, schedule: Q01DX009 (ip), vehicle: saline with Tween-80
[9] = endpoint: mean survival time, dose: 400.0 mg/kg/injection, schedule: Q04DX003 (ip), vehicle: saline with Tween-80

O=C(O)CP(=O)(O)O
T/C (endpoint: mean survival time, dose: 4.0 mg/kg/injection, schedule: Q01DX009 (ip), vehicle: saline): 98 % of control
T/C (endpoint: mean survival time, dose: 8.0 mg/kg/injection, schedule: Q01DX009 (ip), vehicle: saline): 96 % of control
T/C (endpoint: mean survival time, dose: 16.0 mg/kg/injection, schedule: Q01DX009 (ip), vehicle: saline): 104 % of control
T/C (endpoint: mean survival time, dose: 32.0 mg/kg/injection, schedule: Q01DX009 (ip), vehicle: saline): 98 % of control
T/C (endpoint: mean survival time, dose: 37.5 mg/kg/injection, schedule: Q01DX009 (ip), vehicle: saline): 91 % of control
T/C [1]: 95 % of control and 103 % of control
T/C (endpoint: mean survival time, dose: 64.0 mg/kg/injection, schedule: Q01DX009 (ip), vehicle: saline): 103 % of control
T/C (endpoint: mean survival time, dose: 75.0 mg/kg/injection, schedule: Q01DX009 (ip), vehicle: saline): 102 % of control
T/C [2]: 98 % of control and 102 % of control
T/C (endpoint: mean survival time, dose: 128.0 mg/kg/injection, schedule: Q01DX009 (ip), vehicle: saline): 86 % of control
T/C (endpoint: mean survival time, dose: 150.0 mg/kg/injection, schedule: Q01DX009 (ip), vehicle: saline): 100 % of control
T/C [3]: 97 % of control and 102 % of control
T/C (endpoint: mean survival time, dose: 400.0 mg/kg/injection, schedule: Q01DX009 (ip), vehicle: saline): 98 % of control and 101 % of control
T/C (endpoint: mean survival time, dose: 800.0 mg/kg/injection, schedule: Q01DX009 (ip), vehicle: saline): 93 % of control and 103 % of control

Nc1nc(N)c(N)c(NC(c2ccccc2)c2ccccc2)n1
T/C (endpoint: mean survival time, dose: 75.0 mg/kg/injection, schedule: Q01DX001 (ip), vehicle: other): 100 % of control

CC[C@@]1(O)C[C@H](OC2CC(N(C)C)C(OC3CC(O)C(O[C@@H]4O[C@@H](C)C(=O)C=C4N)C(C)O3)C(C)O2)c2c(cc3c(c2O)C(=O)c2c(O)ccc(O)c2C3=O)[C@H]1C(=O)OC (some centres not stated)
T/C (endpoint: mean survival time, dose: 0.02 mg/kg/injection, schedule: Q01DX009 (ip), vehicle: suspension in saline): 102 % of control
T/C (endpoint: mean survival time, dose: 0.05 mg/kg/injection, schedule: Q01DX009 (ip), vehicle: suspension in saline): 96 % of control
T/C (endpoint: mean survival time, dose: 0.1 mg/kg/injection, schedule: Q01DX009 (ip), vehicle: suspension in saline): 103 % of control
T/C (endpoint: mean survival time, dose: 0.2 mg/kg/injection, schedule: Q01DX009 (ip), vehicle: suspension in saline): 115 % of control
T/C (endpoint: mean survival time, dose: 0.4 mg/kg/injection, schedule: Q01DX009 (ip), vehicle: suspension in saline): 108 % of control
T/C (endpoint: mean survival time, dose: 0.8 mg/kg/injection, schedule: Q01DX009 (ip), vehicle: suspension in saline): 123 % of control
T/C (endpoint: mean survival time, dose: 1.6 mg/kg/injection, schedule: Q01DX009 (ip), vehicle: suspension in saline): 111 % of control

C/C(=N\NC(=S)N1CC2CCC(CC2)C1)c1nccs1
T/C (endpoint: median survival time, dose: 3.13 mg/kg/injection, schedule: Q01DX009 (ip), vehicle: saline with Tween-80): 103 % of control
T/C (endpoint: median survival time, dose: 6.25 mg/kg/injection, schedule: Q01DX009 (ip), vehicle: saline with Tween-80): 112 % of control
T/C (endpoint: median survival time, dose: 12.5 mg/kg/injection, schedule: Q01DX009 (ip), vehicle: saline with Tween-80): 113 % of control and 114 % of control and 110 % of control
T/C (endpoint: median survival time, dose: 25.0 mg/kg/injection, schedule: Q01DX009 (ip), vehicle: saline with Tween-80): 115 % of control and 104 % of control
T/C (endpoint: median survival time, dose: 50.0 mg/kg/injection, schedule: Q01DX009 (ip), vehicle: saline with Tween-80): 120 % of control and 95 % of control and 98 % of control

CN(C)c1ccc(/C=C(\C#N)c2ccc(Cl)cc2)c(Cl)c1
T/C [4]: 90 % of control
T/C [5]: 86 % of control
T/C [6]: 94 % of control
T/C [7]: 89 % of control
T/C [8]: 90 % of control
T/C [9]: 86 % of control

C=C(Cl)CSCCO
T/C [4]: 100 % of control
T/C [6]: 104 % of control
T/C [8]: 98 % of control

CS(=O)(=O)OCCCN(CCCOS(C)(=O)=O)CCCN1CCOCC1
T/C (endpoint: mean survival time, dose: 10.0 mg/kg/injection, schedule: Q01DX009 (ip), vehicle: saline): 197 % of control
T/C (endpoint: mean survival time, dose: 12.0 mg/kg/injection, schedule: Q01DX001 (ip), vehicle: saline): 118 % of control
T/C (endpoint: mean survival time, dose: 12.5 mg/kg/injection, schedule: Q04DX003 (ip), vehicle: saline): 122 % of control
T/C (endpoint: mean survival time, dose: 20.0 mg/kg/injection, schedule: Q01DX001 (ip), vehicle: saline): 150 % of control
T/C (endpoint: mean survival time, dose: 20.0 mg/kg/injection, schedule: Q01DX005 (ip), vehicle: saline): 152 % of control
T/C (endpoint: mean survival time, dose: 20.0 mg/kg/injection, schedule: Q01DX009 (ip), vehicle: saline): 230 % of control
T/C (endpoint: mean survival time, dose: 20.0 mg/kg/injection, schedule: Q02DX003 (ip), vehicle: saline): 152 % of control
T/C (endpoint: mean survival time, dose: 20.0 mg/kg/injection, schedule: Q04DX003 (ip), vehicle: saline): 156 % of control
T/C (endpoint: mean survival time, dose: 40.0 mg/kg/injection, schedule: Q01DX001 (ip), vehicle: saline): 200 % of control
T/C (endpoint: mean survival time, dose: 40.0 mg/kg/injection, schedule: Q01DX005 (ip), vehicle: saline): 182 % of control
T/C (endpoint: mean survival time, dose: 40.0 mg/kg/injection, schedule: Q01DX009 (ip), vehicle: saline): 238 % of control
T/C (endpoint: mean survival time, dose: 40.0 mg/kg/injection, schedule: Q02DX003 (ip), vehicle: saline): 166 % of control
T/C [1]: 180 % of control
T/C (endpoint: mean survival time, dose: 50.0 mg/kg/injection, schedule: Q04DX003 (ip), vehicle: saline): 122 % of control
T/C (endpoint: mean survival time, dose: 60.0 mg/kg/injection, schedule: Q01DX001 (ip), vehicle: saline): 159 % of control
T/C (endpoint: mean survival time, dose: 60.0 mg/kg/injection, schedule: Q01DX005 (ip), vehicle: saline): 189 % of control
T/C (endpoint: mean survival time, dose: 60.0 mg/kg/injection, schedule: Q01DX009 (ip), vehicle: saline): 230 % of control
T/C (endpoint: mean survival time, dose: 60.0 mg/kg/injection, schedule: Q02DX003 (ip), vehicle: saline): 191 % of control
T/C (endpoint: mean survival time, dose: 60.0 mg/kg/injection, schedule: Q04DX003 (ip), vehicle: saline): 190 % of control
T/C (endpoint: mean survival time, dose: 75.0 mg/kg/injection, schedule: Q04DX003 (ip), vehicle: saline): 162 % of control
T/C (endpoint: mean survival time, dose: 80.0 mg/kg/injection, schedule: Q01DX005 (ip), vehicle: saline): 234 % of control
T/C (endpoint: mean survival time, dose: 80.0 mg/kg/injection, schedule: Q01DX009 (ip), vehicle: saline): 290 % of control
T/C (endpoint: mean survival time, dose: 80.0 mg/kg/injection, schedule: Q02DX003 (ip), vehicle: saline): 189 % of control
T/C (endpoint: mean survival time, dose: 80.0 mg/kg/injection, schedule: Q04DX003 (ip), vehicle: saline): 206 % of control
T/C (endpoint: mean survival time, dose: 100.0 mg/kg/injection, schedule: Q01DX001 (ip), vehicle: saline): 153 % of control and 265 % of control
T/C (endpoint: mean survival time, dose: 100.0 mg/kg/injection, schedule: Q01DX005 (ip), vehicle: saline): 281 % of control
T/C [2]: 190 % of control and 270 % of control
T/C (endpoint: mean survival time, dose: 100.0 mg/kg/injection, schedule: Q02DX003 (ip), vehicle: saline): 215 % of control
T/C (endpoint: mean survival time, dose: 100.0 mg/kg/injection, schedule: Q04DX003 (ip), vehicle: saline): 165 % of control and 236 % of control
T/C (endpoint: mean survival time, dose: 150.0 mg/kg/injection, schedule: Q04DX003 (ip), vehicle: saline): 197 % of control
T/C (endpoint: mean survival time, dose: 200.0 mg/kg/injection, schedule: Q01DX001 (ip), vehicle: saline): 234 % of control
T/C [3]: 105 % of control
T/C (endpoint: mean survival time, dose: 200.0 mg/kg/injection, schedule: Q04DX003 (ip), vehicle: saline): 228 % of control and 297 % of control

Oc1c(Cl)cc(Cl)cc1C=NCC1CCC(CN=Cc2cc(Cl)cc(Cl)c2O)CC1 (configuration not stated)
T/C [7]: 90 % of control
T/C [9]: 90 % of control

[Br][Pt].[NH-]CC[N-]CC[NH-]
T/C (endpoint: mean survival time, dose: 12.5 mg/kg/injection, schedule: Q01DX009 (ip), vehicle: water): 98 % of control
T/C (endpoint: mean survival time, dose: 25.0 mg/kg/injection, schedule: Q01DX009 (ip), vehicle: water): 93 % of control

Cc1c(C)c2c(c(C)c1O)CCC(C)(CCCC(C)CCCC(C)CCCC(C)C)O2 (configuration not stated)
T/C [4]: 101 % of control
T/C [6]: 95 % of control
T/C (endpoint: mean survival time, dose: 400.0 mg/kg/injection, schedule: Q01DX009 (ip), vehicle: Klucel (hydroxypropylcellulose) (HPC)): 98 % of control
T/C [8]: 101 % of control
T/C (endpoint: mean survival time, dose: 800.0 mg/kg/injection, schedule: Q01DX009 (ip), vehicle: Klucel (hydroxypropylcellulose) (HPC)): 96 % of control
T/C (endpoint: mean survival time, dose: 1200.0 mg/kg/injection, schedule: Q01DX009 (ip), vehicle: Klucel (hydroxypropylcellulose) (HPC)): 96 % of control
T/C (endpoint: mean survival time, dose: 1600.0 mg/kg/injection, schedule: Q01DX009 (ip), vehicle: Klucel (hydroxypropylcellulose) (HPC)): 90 % of control

CC(C)(C)C1CCC(OC(=O)C(=O)O)CC1 (configuration not stated)
T/C (endpoint: mean survival time, dose: 100.0 mg/kg/injection, schedule: Q01DX001 (ip), vehicle: saline with Tween-80): 100 % of control
T/C [4]: 104 % of control
T/C (endpoint: mean survival time, dose: 200.0 mg/kg/injection, schedule: Q01DX001 (ip), vehicle: saline with Tween-80): 97 % of control
T/C [6]: 87 % of control
T/C (endpoint: mean survival time, dose: 400.0 mg/kg/injection, schedule: Q01DX001 (ip), vehicle: saline with Tween-80): 95 % of control

O=C(O)CCCCc1ccccc1
T/C [4]: 93 % of control
T/C [5]: 106 % of control
T/C [6]: 98 % of control
T/C [7]: 92 % of control
T/C [8]: 102 % of control
T/C [9]: 106 % of control

CN(C)c1ccc(C(=O)c2ccc(N(C)C)cc2)cc1
T/C [4]: 96 % of control
T/C [6]: 102 % of control
T/C [8]: 109 % of control

Fc1ccc2nc(C(F)(F)F)cc(Br)c2c1
T/C [5]: 103 % of control
T/C [7]: 98 % of control
T/C [9]: 101 % of control
